According to ChEMBL document CHEMBL5252512, “Recent Progress in the Development of HIV-1 Protease Inhibitors for the Treatment of HIV/AIDS” (J Med Chem, 2016):
One block for each compound: values may come before it.

Legend:
[1] = test system: Human immunodeficiency virus 1; assay: Antiviral activity against wild type HIV-1 IIIB infected in human MT4 cells assessed as protection against virus-induced cytotoxicity incubated for 5 days by XTT assay; type: functional, organism-based; conditions: Human immunodeficiency virus 1, IIIB, MT4, 120 h
[2] = target: T1, Human immunodeficiency virus type 1 protease (Human immunodeficiency virus 1, UniProt Q72874); assay: Binding affinity to wild-type HIV1 protease expressed in Escherichia coli BL21(DE3) assessed as inhibition constant using (2-aminobenzoyl)Thr-Ile-Nle-(p-nitro)Phe-Gln-Arg peptide as substrate preincubated for 15 mins followed by substrate addition by fluorimeter analysis
[3] = target: T1, Human immunodeficiency virus type 1 protease; assay: Inhibition of recombinant HIV1 Protease using His-Lys-Ala-Arg-Val-Leu-(pNO2-Phe)-Glu-Ala-Nle-SerNH2 peptide as substrate
[4] = Half life in dog at 1 mg/kg, iv; type: ADME, organism-based, Canis lupus familiaris; conditions: in vivo
[5] = Clearance in dog at 1 mg/kg, iv; type: ADME, organism-based, Canis lupus familiaris; conditions: in vivo
[6] = Clearance in rat at 2 mg/kg, iv; type: ADME, organism-based; conditions: in vivo
[7] = AUC in dog at 4 mg/kg, po; type: ADME, organism-based, Canis lupus familiaris; set-up: dose 4 mg/kg, route po; conditions: in vivo
[8] = AUC in rat at 10 mg/kg, po; type: ADME, organism-based; set-up: dose 10 mg/kg, route po; conditions: in vivo
[9] = Half life in rat at 1 mg/kg, iv; type: ADME, organism-based; conditions: in vivo
[10] = test system: Human immunodeficiency virus 1; assay: Antiviral activity against HIV1 LAI infected in human MT2 cells assessed as inhibition of virus-induced cytopathic effect; type: functional, organism-based; conditions: Human immunodeficiency virus 1, LAI
[11] = target: T1, Human immunodeficiency virus type 1 protease; assay: Binding affinity to HIV1 protease assessed as inhibition constant
[12] = target: T1, Human immunodeficiency virus type 1 protease; assay: Inhibition of recombinant HIV1 Protease using Abz-Thr-Ile-Nle-(p-nitro)-Phe-Gln-Arg-NH2 peptide as substrate

SMILES: CCOP(=O)(COc1ccc(C[C@H](NC(=O)O[C@H]2CO[C@H]3OCC[C@H]32)[C@H](O)CN(CC(C)C)S(=O)(=O)c2ccc(OC)cc2)cc1)OCC
EC50 [1]: 3.5 nM
Ki [2]: 8.1 pM

SMILES: CCCN([C@H](CO)CCC[C@H](C)NC(=O)[C@@H](NC(=O)OC)C(c1ccccc1)c1ccccc1)S(=O)(=O)c1ccc(N)cc1
half-life [4]: 546 min
clearance [5]: 5.3 mL/min/kg
clearance [6]: 30 mL/min/kg
AUC [7]: 2.48 µM·h
AUC [8]: 1.35 µM·h
half-life [9]: 744 min

SMILES: Cc1cccc(C)c1OCC(=O)N(Cc1ccccc1)C[C@@H]1CNC[C@H]1CN(CC(C)C)S(=O)(=O)c1ccccc1
IC50 [12]: 2200 nM

Now from value to compound:

IC50 [3]: 1.7 µM
SMILES: C=C(C)[C@H]1CC[C@]2(C)[C@H]3CC[C@@H]4[C@@]5(C)C[C@H](OC(C)=O)C[C@](C)(C(=O)O)[C@@H]5CC[C@@]4(C)[C@]3(C)CC[C@@H]12

IC50 [10]: 3.8 nM
Ki [11]: 0.11 nM
SMILES: COc1ccc(S(=O)(=O)N(CC(C)C)C[C@@H](O)[C@H](Cc2ccccc2)NC(=O)O[C@@H]2C[C@@H]3OCO[C@@H]3C2)cc1

half-life [4]: 312 min
clearance [5]: 4.7 mL/min/kg
clearance [6]: 17.4 mL/min/kg
AUC [7]: 3.62 µM·h
AUC [8]: 0.56 µM·h
half-life [9]: 203 min
SMILES: CCCN([C@H](CO)CCC[C@@H](NC(=O)[C@@H](NC(=O)OC)C(c1ccccc1)c1ccccc1)C(F)(F)F)S(=O)(=O)c1ccc(N)cc1

IC50 [3]: 17.8 µM
SMILES: C=C(C)[C@@H]1CC[C@@]2(C)[C@@H]1C1CC[C@@H]3[C@@](C)(CC(=O)O)[C@H](C(C)(C)C(=O)O)CC[C@@]3(C)[C@]1(C)C[C@@H]2O (some centres undefined)
